#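 Briefly, cells in 96-well plates were exposed to five compound concentrations for 48 h, and endpoints were estimated by linear interpolation. GI50 is the concentration that inhibits growth by half.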 The source made the active and inactive calls. No stated cut-off is given here; in the data, active = GI50 up to about 1.1 µM and inactive = higher.
# How the values were obtained:
# Assay in all cases: inhibition of tumour cell growth, NCI panel, 48 h
# [1] = tested on: CAKI-1
# [2] = tested on: HOP-62
# [3] = tested on: Malme-3M
# [4] = tested on: SNB-19
# [5] = tested on: SF-268
# [6] = tested on: NCI-H23
# [7] = tested on: SK-MEL-5
# [8] = tested on: OVCAR-4
# [9] = tested on: NCI-H522
# [10] = tested on: U-251
# [11] = tested on: K562
# [12] = tested on: HT-29
# [13] = tested on: OVCAR-3
# [14] = tested on: COLO 205
# [15] = tested on: TK-10
# [16] = tested on: SK-MEL-28
# [17] = tested on: M14
# [18] = tested on: A498
# [19] = tested on: HCT-116
# [20] = tested on: PC-3
Structure (SMILES),GI50 [1],GI50 [2],GI50 [3],GI50 [4],GI50 [5],GI50 [6],GI50 [7],GI50 [8],GI50 [9],GI50 [10],GI50 [11],GI50 [12],GI50 [13],GI50 [14],GI50 [15],GI50 [16],GI50 [17],GI50 [18],GI50 [19],GI50 [20]
CSC1CC2C(CC1(C)SC)C2(C)C (configuration not stated),> 100 µM (inactive),> 100 µM (inactive),41.8 µM (inactive),46.9 µM (inactive),> 100 µM (inactive),61.7 µM (inactive),24.4 µM (inactive),62.8 µM (inactive),> 100 µM (inactive),32.1 µM (inactive),24.3 µM (inactive),38.8 µM (inactive),37.9 µM (inactive),37.3 µM (inactive),> 100 µM (inactive),> 100 µM (inactive),92 µM (inactive),> 100 µM (inactive),–,–
S=C(NCc1ccccc1)c1nc[nH]c1C(=S)NCc1ccccc1,5.47 µM (inactive),10 µM (inactive),11 µM (inactive),5.4 µM (inactive),6.19 µM (inactive),6.93 µM (inactive),–,6.65 µM (inactive),3.58 µM (inactive),5.87 µM (inactive),4.4 µM (inactive),6.84 µM (inactive),6 µM (inactive),3.48 µM (inactive),10.5 µM (inactive),12.4 µM (inactive),5.55 µM (inactive),–,5.64 µM (inactive),7.82 µM (inactive)
CC(=O)O[C@H]1CCC2[C@@H]3CCC4=C(O)c5nocc5C[C@]4(C)C3CC[C@@]21C (some centres not stated),> 100 µM (inactive),> 100 µM (inactive),> 100 µM (inactive),> 100 µM (inactive),> 100 µM (inactive),> 100 µM (inactive),> 100 µM (inactive),> 100 µM (inactive),> 100 µM (inactive),> 100 µM (inactive),> 100 µM (inactive),> 100 µM (inactive),> 100 µM (inactive),> 100 µM (inactive),> 100 µM (inactive),> 100 µM (inactive),> 100 µM (inactive),> 100 µM (inactive),> 100 µM (inactive),–
CCCCN(CC)CC(C(C)=O)c1c(O)c2ccccc2oc1=O (configuration not stated),> 100 µM (inactive),> 100 µM (inactive),> 100 µM (inactive),> 100 µM (inactive),> 100 µM (inactive),15.4 µM (inactive),> 100 µM (inactive),> 100 µM (inactive),> 100 µM (inactive),> 100 µM (inactive),> 100 µM (inactive),> 100 µM (inactive),> 100 µM (inactive),> 100 µM (inactive),> 100 µM (inactive),> 100 µM (inactive),> 100 µM (inactive),> 100 µM (inactive),> 100 µM (inactive),–
C[C@]12CCC3[C@@H](CC[C@@H]4c5nonc5CC[C@]34C)C1CC[C@@H]2O (some centres not stated),19.8 µM (inactive),28.4 µM (inactive),24.5 µM (inactive),41.6 µM (inactive),29.6 µM (inactive),32.1 µM (inactive),18.4 µM (inactive),27.3 µM (inactive),17.8 µM (inactive),19.9 µM (inactive),34.3 µM (inactive),32.7 µM (inactive),21.1 µM (inactive),30.4 µM (inactive),29.5 µM (inactive),21.1 µM (inactive),23.6 µM (inactive),25.2 µM (inactive),–,–
COc1cc(/C=C2\NC(=S)C3Cc4c(OC)c(C)c(OC)c(OC)c4C2N3C)c(OC)c(C)c1OC (configuration not stated),58.1 µM (inactive),> 100 µM (inactive),29 µM (inactive),65.3 µM (inactive),95.3 µM (inactive),86.1 µM (inactive),24.5 µM (inactive),> 100 µM (inactive),20 µM (inactive),45.1 µM (inactive),49.4 µM (inactive),61.4 µM (inactive),31 µM (inactive),16.5 µM (inactive),46 µM (inactive),> 100 µM (inactive),42.8 µM (inactive),63.5 µM (inactive),33.7 µM (inactive),–
NC(C(F)(F)F)(C(F)(F)F)P(=O)(c1ccccc1)c1ccccc1,> 100 µM (inactive),> 100 µM (inactive),> 100 µM (inactive),> 100 µM (inactive),> 100 µM (inactive),> 100 µM (inactive),> 100 µM (inactive),> 100 µM (inactive),–,> 100 µM (inactive),> 100 µM (inactive),> 100 µM (inactive),> 100 µM (inactive),> 100 µM (inactive),> 100 µM (inactive),> 100 µM (inactive),> 100 µM (inactive),–,> 100 µM (inactive),> 100 µM (inactive)
Cc1ccccc1/N=N/c1c(-c2ccccc2)nn(C(=O)CC(=O)Nc2cccc(Cl)c2)c1-c1ccccc1,31.6 µM (inactive),> 31.6 µM (inactive),37.9 µM (inactive),36.4 µM (inactive),24 µM (inactive),20.1 µM (inactive),15.8 µM (inactive),22.6 µM (inactive),> 10 µM (inactive),13.7 µM (inactive),16.8 µM (inactive),15.3 µM (inactive),18.5 µM (inactive),14.9 µM (inactive),0.27 µM (active),> 31.5 µM (inactive),22.1 µM (inactive),19 µM (inactive),13.4 µM (inactive),–
CC1(C)[C@H]2CC[C@]1(C)[C@H](OC(=O)NNC(=O)O[C@@H]1C[C@@H]3CC[C@@]1(C)C3(C)C)C2,15.5 µM (inactive),14.9 µM (inactive),16.1 µM (inactive),19.5 µM (inactive),15.6 µM (inactive),14.9 µM (inactive),12.6 µM (inactive),11.4 µM (inactive),13 µM (inactive),16 µM (inactive),3.35 µM (inactive),5.7 µM (inactive),11.9 µM (inactive),12.3 µM (inactive),20.6 µM (inactive),24.3 µM (inactive),15.5 µM (inactive),16.3 µM (inactive),10.9 µM (inactive),–
C=CC1(C(=O)O)CCC(C(C)(C)C)CC1 (configuration not stated),> 100 µM (inactive),> 100 µM (inactive),> 100 µM (inactive),> 100 µM (inactive),> 100 µM (inactive),> 100 µM (inactive),> 100 µM (inactive),> 100 µM (inactive),86.1 µM (inactive),> 100 µM (inactive),> 100 µM (inactive),> 100 µM (inactive),> 100 µM (inactive),> 100 µM (inactive),> 100 µM (inactive),–,> 100 µM (inactive),> 100 µM (inactive),> 100 µM (inactive),–
N#CC1(c2ccccc2)CCN(C2(c3ccccc3)CCCCC2)CC1,> 100 µM (inactive),> 100 µM (inactive),8.83 µM (inactive),> 100 µM (inactive),> 100 µM (inactive),> 100 µM (inactive),> 100 µM (inactive),> 100 µM (inactive),–,> 100 µM (inactive),> 100 µM (inactive),> 100 µM (inactive),> 100 µM (inactive),> 100 µM (inactive),> 100 µM (inactive),> 100 µM (inactive),> 100 µM (inactive),–,> 100 µM (inactive),> 100 µM (inactive)
CCOC(=O)c1nnsc1N/N=C\c1ccc([N+](=O)[O-])cc1,–,60 µM (inactive),> 100 µM (inactive),70.1 µM (inactive),77.4 µM (inactive),> 100 µM (inactive),> 100 µM (inactive),> 100 µM (inactive),> 100 µM (inactive),> 100 µM (inactive),> 100 µM (inactive),> 100 µM (inactive),> 100 µM (inactive),> 100 µM (inactive),> 100 µM (inactive),> 100 µM (inactive),> 100 µM (inactive),–,> 100 µM (inactive),> 100 µM (inactive)
C[C@@H]1C[C@@H]2C(=O)N(c3ccccc3)C(=O)[C@@H]2c2[nH]c3ccc(Br)cc3c21,27.4 µM (inactive),23.3 µM (inactive),39.4 µM (inactive),29.6 µM (inactive),41.5 µM (inactive),89.7 µM (inactive),50.1 µM (inactive),21.2 µM (inactive),24 µM (inactive),13.5 µM (inactive),49.1 µM (inactive),–,23.7 µM (inactive),> 100 µM (inactive),68.9 µM (inactive),> 100 µM (inactive),75.2 µM (inactive),68.4 µM (inactive),30.2 µM (inactive),–
COc1ccccc1/C=N/C12CC3CC(CC(C3)C1)C2,> 100 µM (inactive),> 100 µM (inactive),> 100 µM (inactive),> 100 µM (inactive),> 100 µM (inactive),> 100 µM (inactive),81.8 µM (inactive),> 100 µM (inactive),> 100 µM (inactive),> 100 µM (inactive),32.4 µM (inactive),> 100 µM (inactive),> 100 µM (inactive),> 100 µM (inactive),> 100 µM (inactive),> 100 µM (inactive),> 100 µM (inactive),> 100 µM (inactive),> 10 µM (inactive),–
N#CC(c1ccccc1)c1nc2ccc(N)cc2[n+]([O-])c1C(C#N)c1ccccc1 (configuration not stated),69.8 µM (inactive),> 100 µM (inactive),99.5 µM (inactive),> 100 µM (inactive),> 100 µM (inactive),67.8 µM (inactive),1 µM (active),74 µM (inactive),46.9 µM (inactive),59.6 µM (inactive),44.5 µM (inactive),58.7 µM (inactive),91.8 µM (inactive),76.4 µM (inactive),> 100 µM (inactive),> 100 µM (inactive),86.7 µM (inactive),> 100 µM (inactive),54.1 µM (inactive),–
